# From patent US6737383B1, “Herbicidal oxadiazolidines” (priority 1999, dated 2004)
# Experiments:
# [1] = system: bedstraw; assay: Test B pre/postemergence bedstraw; type: in vivo, Galium aparine
# Outline: (§1)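 Test chemicals in a non-phytotoxic solvent mixture with surfactant were sprayed preemergence onto planted seeds and postemergence onto plants 2 to 18 cm tall (1- to 4-leaf stage). After twelve to sixteen days in a greenhouse, injury was visually rated against untreated controls from 0 (no effect) to 10 (complete control).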
# [2] = system: blackgrass; assay: Test B pre/postemergence blackgrass; type: in vivo, Alopecurus myosuroides
# Outline: as §1
# [3] = system: surinam grass; assay: Test B pre/postemergence surinam grass; type: in vivo, Brachiaria decumbens
# Outline: as §1
# [4] = system: cocklebur; assay: Test B pre/postemergence cocklebur; type: in vivo, Xanthium strumarium
# Outline: as §1
# [5] = system: corn; assay: Test B pre/postemergence corn; type: in vivo, Zea mays
# Outline: as §1
# [6] = system: crabgrass; assay: Test B pre/postemergence crabgrass; type: in vivo, Digitaria sanguinalis
# Outline: as §1
# [7] = system: giant foxtail; assay: Test B pre/postemergence giant foxtail; type: in vivo, Setaria faberii
# Outline: as §1
# [8] = system: morningglory; assay: Test B pre/postemergence morningglory; type: in vivo, Ipomoea hederacea
# Outline: as §1
# [9] = system: pigweed; assay: Test B pre/postemergence pigweed; type: in vivo, Amaranthus retroflexus
# Outline: as §1
# [10] = system: rape; assay: Test B pre/postemergence rape; type: in vivo, Brassica napus
# Outline: as §1
# [11] = system: soybean; assay: Test B pre/postemergence soybean; type: in vivo, Glycine max
# Outline: as §1
# [12] = system: sugar beet; assay: Test B pre/postemergence sugar beet; type: in vivo, Beta vulgaris
# Outline: as §1
# [13] = system: velvetleaf; assay: Test B pre/postemergence velvetleaf; type: in vivo, Abutilon theophrasti
# Outline: as §1
# [14] = system: wheat; assay: Test B pre/postemergence wheat; type: in vivo, Triticum aestivum
# Outline: as §1
# [15] = system: wild oat; assay: Test B pre/postemergence wild oat; type: in vivo, Avena fatua
# Outline: as §1
# [16] = system: purple nutsedge; assay: Test B pre/postemergence purple nutsedge; type: in vivo, Cyperus rotundus; conditions: Preemergence
# Outline: as §1
# [17] = system: smallflower flatsedge; assay: Test B flood test smallflower flatsedge; type: in vivo, Cyperus difformis
# Outline: (§2)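 Read-out is a visual response score from 0 (no effect) to 10 (complete control), assigned by comparison with untreated controls. Treatment was applied at the 2-leaf stage, and plants stayed in the greenhouse for twelve to sixteen days before scoring.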
# [18] = system: duck salad; assay: Test B flood test duck salad; type: in vivo, Heteranthera limosa
# Outline: as §2
# [19] = system: bamyardgrass; assay: Test B flood test barnyardgrass; type: in vivo, Echinochloa crus-galli
# Outline: as §2
# [20] = Postemergence, Rate 62 g/ha, scale of 0 to 10, 0 is no effect, 10 is complete control
# [21] = Postemergence, Rate 125 g/ha, scale 0 to 10, 0 is no effect, 10 is complete control
# [22] = Postemergence, Rate 500 g/ha, scale 0 to 10, 0 is no effect, 10 is complete control
# [23] = Preemergence, Rate 62 g/ha, scale 0 to 10 (0 no effect, 10 complete control)
# [24] = Rate 250 g/ha, Postemergence, scale of 0 to 10 where 0 is no effect and 10 is complete control
# [25] = Preemergence, Rate 125 g/ha, scale 0 to 10, 0 is no effect, 10 is complete control
# [26] = Preemergence, Rate 500 g/ha, scale of 0 to 10 where 0 is no effect and 10 is complete control
# [27] = Rate 62 g/ha, flood test species, Pre-emergence, visual evaluation after twelve to sixteen days
# [28] = Rate 125 g/ha, under heading Pre-emergence, flood test species, visual evaluation after twelve to sixteen days
# [29] = Rate 250 g/ha, Pre-emergence (flood test species), scale 0 to 10, 0 is no effect, 10 is complete control
# [30] = Rate 500 g/ha, Pre-emergence section of Table B, 0 to 10 scale (0 no effect, 10 complete control)
compound,measurement,setting,value
C=CCCCn1c(=O)on(C(=O)N(c2ccc(Cl)cc2)C(C)C)c1=O [Compound 546],Bedstraw plant response rating,[1]; [20],0
same,Bedstraw plant response rating,[1]; [21],9
same,"Plant response rating, Bedstraw",[1]; [22],9
same,Bedstraw plant response rating,[1]; [23],0
same,Bedstraw plant response rating (0 to 10 scale),"[1]; Preemergence, Rate 250 g/ha",8
same,"Plant response rating, Bedstraw",[1]; [24],9
same,Blackgrass plant response rating,[2]; [20],0
same,Blackgrass plant response rating,[2]; [21],0
same,"Plant response rating, Blackgrass",[2]; [22],6
same,Blackgrass plant response rating,[2]; [23],0
same,Blackgrass plant response rating,[2]; [25],0
same,Blackgrass plant response rating (0 to 10 scale),"[2]; Preemergence, Rate 250 g/ha",0
same,Blackgrass plant response rating,[2]; [26],3
same,"Plant response rating, Blackgrass",[2]; [24],3
same,B. signalgrass plant response rating,[3]; [20],0
same,B. signalgrass plant response rating,[3]; [21],0
same,"Plant response rating, B. signalgrass",[3]; [22],0
same,B. signalgrass plant response rating,[3]; [23],0
same,"B. signalgrass plant response rating (0 to 10 scale, 0 is no effect, 10 is complete control)","[3]; Preemergence, Rate 250 g/ha",0
same,B. signalgrass plant response rating,[3]; [26],2
same,"Plant response rating, B. signalgrass",[3]; [24],0
same,Cocklebur plant response rating,[4]; [20],0
same,Cocklebur plant response rating,[4]; [21],0
same,"Plant response rating, Cocklebur",[4]; [22],0
same,Cocklebur plant response rating,[4]; [23],0
same,Cocklebur plant response rating,[4]; [25],0
same,Cocklebur plant response rating (0 to 10 scale),"[4]; Preemergence, Rate 250 g/ha",0
same,Cocklebur plant response rating,[4]; [26],0
same,"Plant response rating, Cocklebur",[4]; [24],0
same,Corn plant response rating,[5]; [20],0
same,Corn plant response rating,[5]; [21],0
same,"Plant response rating, Corn",[5]; [22],0
same,Corn plant response rating,[5]; [23],0
same,Corn plant response rating,[5]; [25],0
same,Corn plant response rating (0 to 10 scale),"[5]; Preemergence, Rate 250 g/ha",0
same,Corn plant response rating,[5]; [26],0
same,"Plant response rating, Corn",[5]; [24],0
same,Crabgrass plant response rating,[6]; [20],1
same,Crabgrass plant response rating,[6]; [21],7
same,"Plant response rating, Crabgrass",[6]; [22],10
same,Crabgrass plant response rating,[6]; [23],7
same,Crabgrass plant response rating,[6]; [25],7
same,Crabgrass plant response rating (0 to 10 scale),"[6]; Preemergence, Rate 250 g/ha",10
same,Crabgrass plant response rating,[6]; [26],10
same,"Plant response rating, Crabgrass",[6]; [24],7
same,Giant foxtail plant response rating,[7]; [20],0
same,"Plant response rating, Giant foxtail",[7]; [22],7
same,Giant foxtail plant response rating,[7]; [25],4
same,Giant foxtail plant response rating (0 to 10 scale),"[7]; Preemergence, Rate 250 g/ha",10
same,Giant foxtail plant response rating,[7]; [26],10
same,"Plant response rating, Giant foxtail",[7]; [24],4
same,Morningglory plant response rating,[8]; [20],0
same,Morningglory plant response rating,[8]; [21],4
same,"Plant response rating, Morningglory",[8]; [22],10
same,Morningglory plant response rating,[8]; [23],0
same,Morningglory plant response rating,[8]; [25],0
same,Morningglory plant response rating (0 to 10 scale),"[8]; Preemergence, Rate 250 g/ha",0
same,Morningglory plant response rating,[8]; [26],0
same,"Plant response rating, Morningglory",[8]; [24],5
same,Redroot pigweed plant response rating,[9]; [20],0
same,"Plant response rating, Redroot pigweed",[9]; [22],3
same,Redroot pigweed plant response rating,[9]; [25],3
same,Redroot pigweed plant response rating (0 to 10 scale),"[9]; Preemergence, Rate 250 g/ha",10
same,"Plant response rating, Redroot pigweed",[9]; [24],0
same,Rape plant response rating,[10]; [20],0
same,Rape plant response rating,[10]; [21],0
same,"Plant response rating, Rape",[10]; [22],7
same,Rape plant response rating,[10]; [23],0
same,Rape plant response rating,[10]; [25],0
same,Rape plant response rating (0 to 10 scale),"[10]; Preemergence, Rate 250 g/ha",0
same,Rape plant response rating,[10]; [26],0
same,"Plant response rating, Rape",[10]; [24],7
same,Soybean plant response rating,[11]; [20],1
same,Soybean plant response rating,[11]; [21],1
same,"Plant response rating, Soybean",[11]; [22],4
same,Soybean plant response rating,[11]; [23],0
same,Soybean plant response rating,[11]; [25],0
same,Soybean plant response rating (0 to 10 scale),"[11]; Preemergence, Rate 250 g/ha",0
same,Soybean plant response rating,[11]; [26],0
same,"Plant response rating, Soybean",[11]; [24],2
same,Sugarbeets plant response rating,[12]; [20],0
same,Sugarbeets plant response rating,[12]; [21],0
same,"Plant response rating, Sugarbeets",[12]; [22],5
same,Sugarbeets plant response rating,[12]; [23],0
same,Sugarbeets plant response rating,[12]; [25],0
same,Sugarbeets plant response rating (0 to 10 scale),"[12]; Preemergence, Rate 250 g/ha",2
same,Sugarbeets plant response rating,[12]; [26],2
same,"Plant response rating, Sugarbeets",[12]; [24],4
same,Velvetleaf plant response rating,[13]; [20],0
same,Velvetleaf plant response rating,[13]; [21],0
same,"Plant response rating, Velvetleaf",[13]; [22],2
same,Velvetleaf plant response rating,[13]; [23],0
same,Velvetleaf plant response rating,[13]; [25],0
same,Velvetleaf plant response rating (0 to 10 scale),"[13]; Preemergence, Rate 250 g/ha",0
same,Velvetleaf plant response rating,[13]; [26],2
same,Wheat plant response rating,[14]; [20],0
same,Wheat plant response rating,[14]; [21],0
same,"Plant response rating, Wheat",[14]; [22],0
same,Wheat plant response rating,[14]; [23],0
same,Wheat plant response rating,[14]; [25],0
same,Wheat plant response rating (0 to 10 scale),"[14]; Preemergence, Rate 250 g/ha",0
same,Wheat plant response rating,[14]; [26],0
same,"Plant response rating, Wheat",[14]; [24],0
same,Wild oats plant response rating,[15]; [20],0
same,Wild oats plant response rating,[15]; [21],0
same,"Plant response rating, Wild oats",[15]; [22],2
same,Wild oats plant response rating,[15]; [23],0
same,Wild oats plant response rating,[15]; [25],0
same,Wild oats plant response rating (0 to 10 scale),"[15]; Preemergence, Rate 250 g/ha",0
same,Wild oats plant response rating,[15]; [26],3
same,"Plant response rating, Wild oats",[15]; [24],0
same,Nutsedge plant response rating,"[16]; Rate 62 g/ha, scale 0 to 10 (0 no effect, 10 complete control)",0
same,Nutsedge plant response rating,"[16]; Rate 125 g/ha, scale 0 to 10, 0 is no effect, 10 is complete control",0
same,Nutsedge plant response rating (0 to 10 scale),[16]; Rate 250 g/ha,0
same,Nutsedge plant response rating,"[16]; Rate 500 g/ha, scale of 0 to 10 where 0 is no effect and 10 is complete control",0
same,"Plant response rating, S. Flatsedge (0 to 10 scale, 0 is no effect, 10 is complete control)",[17]; [27],0
same,"S. Flatsedge plant response rating (0 to 10 scale, 0 is no effect, 10 is complete control)",[17]; [28],0
same,S. Flatsedge plant response rating,[17]; [29],0
same,S. Flatsedge plant response rating,[17]; [30],0
same,"Plant response rating, Ducksalad (0 to 10 scale, 0 is no effect, 10 is complete control)",[18]; [27],0
same,"Ducksalad plant response rating (0 to 10 scale, 0 is no effect, 10 is complete control)",[18]; [28],0
same,Ducksalad plant response rating,[18]; [29],0
same,Ducksalad plant response rating,[18]; [30],0
same,"Plant response rating, Barnyardgrass (0 to 10 scale, 0 is no effect, 10 is complete control)",[19]; [27],0
same,"Barnyardgrass plant response rating (0 to 10 scale, 0 is no effect, 10 is complete control)",[19]; [28],0
same,Barnyardgrass plant response rating,[19]; [29],0
same,Barnyardgrass plant response rating,[19]; [30],0
